From patent publication US20220220106A1, “QUINOLINE COMPOUNDS AND PHARMACEUTICAL COMPOSITIONS AND USES THEREOF” (Academy of Military Medical Sciences, priority 2019, published 2022) come the findings set out here.

Molecules are shown by their SMILES.

For one data set, the target named is T1, mTOR kinase (Homo sapiens, UniProt P42345).
T1 construct: purchased Thermo Fisher PV4753
Briefly: In vitro inhibitory activity on mTOR kinase (TR-FRET, GFP-4E-BP1 substrate). Format: biochemical. As to conditions: for IC50: 0.5 μg/mL mTOR, 0.4 μM GFP-4E-BP1, 3 μM ATP. As for the experimental part: Preparation of Reaction Buffers:
Basic buffer composition: 50 mM (mmol/L) HEPES (pH 7.5), 1 mM EGTA, 0.01% Tween-20, 10 mM MnCl2, 2 mM DTT (diluted from 500 mM before used).
(2) mTOR kinase buffer solution: 1650 μL of 2.5×mTOR kinase buffer solution was composed of 1640.2 μL of 1× basic buffer and 9.8 μL of mTOR (0.21 mg/mL stock solution), and the final concentration was 0.5 μg/mL.
(3) Detection buffer solution: 3960 μL of 2× detection buffer solution was composed of 3797.1 μL of TR-FRET buffer diluent (purchased from Thermo Fisher, catalog number: PV3574), 4.5 μL of Tb-anti-p4E-BP1 antibody (3.49 μM stock solution, purchased from Thermo Fisher, catalog number: PV4757) and 158 μL of EDTA (500 mM stock solution), and the final concentrations were 2 nM Tb-anti-p4E-BP1 antibody and 10 mM EDTA.
(1) 20 μL of 100% DMSO solution containing 5 mM compound to be tested was added to a 96-well plate.
(2) The compound was serially diluted 3 times in DMSO.
(3) 1 μL of the compound in the previous step was taken, diluted with 19 μL of mTOR kinase buffer, and transferred to another 96-well plate.
(4) 4 μL of mTOR kinase solution (purchased from Thermo Fisher, catalog number: PV4753) was added to a 384-well plate.
(5) 2 μL of the compound in G was taken out and added to the 384-well plate with mTOR kinase, and incubated at room temperature for 15 minutes.
(6) 4 μL of substrate solution was added to initiate the reaction.
The final concentrations of mTOR reaction solution were: 0.5 μg/mL mTOR, 0.4 μM GFP-4E-BP1, 3 μM ATP.
The final concentration of the DMSO solution was 1%.
(7) Incubation was performed for 60 minutes at room temperature.
(8) 10 μL of detection buffer was added. The final concentrations were 2 nM Tb-anti-p4E-BP1 antibody and 10 mM EDTA.
(9) Incubation was performed for 30 minutes at room temperature.
(10) TR-FRET value was read on MD5 multi-mode plate reader (Molecular Devices). The excitation wavelength was 340 nm, the emission wavelength 1 was 495 nm, and the emission wavelength 2 was 520 nm. The ratio of 520 nm/495 nm readings was calculated as TR-FRET value.
IC50 of compound was fitted by nonlinear regression equation:
Y=Bottom+(Top-Bottom)/(1+10^((LogIC50-X)*HillSlope));
X: common logarithm value of compound concentration; Y: TR-FRET value (520 nm/495 nm).
On the technique in general: In TR-FRET formats the signal depends on donor and acceptor labels being close together.

Data set [1] relates to Enterovirus 71 (EV71) H strain. Kind of data set: In vitro anti-EV71 activity (antiviral activity in RD cells, CellTiter-Glo). Format: cell-based. As to conditions: for in vitro anti-EV71 activity, in words: EV71, RD cells; for IC50: Enterovirus A, 96 h, EV71 H strain, RD cells, 4 days, CellTiter-Glo, read-out: IC50. In a few lines:
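RD cells infected with 100TCID50 EV71 in DMEM+2% FBS, with compound in 10-point three-fold dilutions, cultured 4 days at 37° C. Cell viability by CellTiter-Glo luminescence; inhibition rate relative to cell control fitted to S-curve for IC50. TD50 derived likewise; SI=TD50/IC50.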
On the technique in general: ATP-based viability assays read luminescence as a measure of living cells.

A further data set concerns RD cells. Kind of data set: Detection of cytotoxicity in RD cells (CellTiter-Glo). Format: cell-based. As to conditions: 4 days, CellTiter-Glo, median toxic dose. In a few lines: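 RD cells (1*10^5/mL) cultured 4 days at 37 °C with 10 compound concentrations from 3-fold dilution of a 400 μM pretreatment solution, final being 0.5 times that. Viability by CellTiter-Glo luminescence versus cell control; TD50 from S-curve fit; SI=TD50/IC50.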

T1 sequence (P42345 1360-2549 limits assumed): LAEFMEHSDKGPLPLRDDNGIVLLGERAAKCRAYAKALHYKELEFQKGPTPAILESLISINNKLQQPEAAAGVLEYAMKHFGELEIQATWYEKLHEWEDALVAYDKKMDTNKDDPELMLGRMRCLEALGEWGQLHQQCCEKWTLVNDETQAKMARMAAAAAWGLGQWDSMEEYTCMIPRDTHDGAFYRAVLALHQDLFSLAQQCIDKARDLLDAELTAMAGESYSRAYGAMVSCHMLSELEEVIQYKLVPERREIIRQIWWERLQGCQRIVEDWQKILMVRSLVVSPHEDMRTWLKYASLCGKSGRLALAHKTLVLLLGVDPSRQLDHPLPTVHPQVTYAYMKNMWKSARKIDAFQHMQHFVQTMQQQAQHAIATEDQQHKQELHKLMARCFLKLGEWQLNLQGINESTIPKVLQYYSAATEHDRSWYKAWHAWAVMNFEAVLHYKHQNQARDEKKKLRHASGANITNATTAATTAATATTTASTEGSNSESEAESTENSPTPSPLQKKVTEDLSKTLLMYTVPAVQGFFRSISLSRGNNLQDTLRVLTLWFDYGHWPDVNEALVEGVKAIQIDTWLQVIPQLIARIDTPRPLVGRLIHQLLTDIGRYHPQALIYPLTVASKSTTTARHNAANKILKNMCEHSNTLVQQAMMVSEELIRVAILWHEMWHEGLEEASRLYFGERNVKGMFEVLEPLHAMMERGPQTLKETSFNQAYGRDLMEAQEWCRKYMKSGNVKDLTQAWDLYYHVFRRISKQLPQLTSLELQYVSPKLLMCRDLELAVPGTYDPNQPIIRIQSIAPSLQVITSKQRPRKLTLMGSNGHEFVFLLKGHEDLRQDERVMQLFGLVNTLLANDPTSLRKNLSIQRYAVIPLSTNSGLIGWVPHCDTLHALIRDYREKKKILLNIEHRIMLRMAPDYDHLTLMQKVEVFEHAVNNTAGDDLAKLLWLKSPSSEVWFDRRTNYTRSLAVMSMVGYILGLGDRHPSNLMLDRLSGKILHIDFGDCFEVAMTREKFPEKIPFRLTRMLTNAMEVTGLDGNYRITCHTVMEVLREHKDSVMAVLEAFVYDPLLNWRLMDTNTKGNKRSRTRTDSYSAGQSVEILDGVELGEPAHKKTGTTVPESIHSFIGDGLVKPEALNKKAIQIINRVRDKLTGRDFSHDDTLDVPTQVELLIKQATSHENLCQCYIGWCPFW

As usually defined, the IC50 is the concentration that inhibits the measured activity by half. A word on the melting point: it is the temperature, or range, at which the solid turns liquid. Consider `CC(=O)/C=C/c1cnc2ccc(-c3ccc(N)cc3)cc2c1Nc1cccc(C(F)(F)F)c1` [HTL-2-35, (E)-6-(4-amino)phenyl-4-[3-(trifluoromethyl)phenyl]aminoquinoline-3-butenone], for which the melting point was 183 to 185 °C. In addition, on mTOR kinase, the “inhibitory activity on mTOR kinase, in words” value (“inhibitory activity” for short) was “weak inhibitory activity” and the IC50 stood at 7.77 µM. In data set [1], the “in vitro anti-EV71 activity, in words” value was “moderate anti-EV71 activity” and the half-maximal inhibitory concentration (IC50) is 3.7 ± 0.01 µM. In the data set with RD cells, this compound gave a TD50 of 5.14 ± 1.92 µM.

Take `Cc1ccc(-c2ccc3ncc4oc(=O)n(-c5cccc(C(F)(F)F)c5)c4c3c2)cn1` [HTL-5-23, 8-[3-(6-methyl)pyridyl]-1-[3-(trifluoromethyl)phenyl]oxazolo[5,4-c] quinolin-2(1H)-one]: the melting point lay in the range of 299 to 300 °C. For the same compound, at mTOR kinase, the “inhibitory activity” value is listed as “moderate inhibitory activity” and half-maximal inhibition (IC50) required 0.257 µM. Moreover, in data set [1], the “in vitro anti-EV71 activity, in words” value is given as “moderate inhibitory activity” and the IC50 was 4.78 ± 1.73 µM. Also, the TD50 with RD cells was found to be 16.88 ± 5.46 µM.

With `NC(=O)NC/C=C/c1ccc2ncc3oc(=O)n(-c4cccc(C(F)(F)F)c4)c3c2c1` [HTL-6-34, (E)-8-(3-ureido-propenyl)-1-[3-(trifluoromethyl)phenyl]oxazolo[5,4-c]quinolin-2(1H)-one], at mTOR kinase, the “inhibitory activity” value was “moderate inhibitory activity” and the half-maximal inhibitory concentration (IC50) was 0.849 µM. In data set [1], the half-inhibitory concentration (IC50) is more than 200 µM. The same compound registered a TD50 in the data set with RD cells of 66.64 ± 1.17 µM.

As to `COc1ncccc1-c1ccc2ncc3ccc(=O)n(-c4cccc(C(F)(F)F)c4)c3c2c1` [HTL-7-02, 9-[3-(2-methoxy)pyridyl]-2-oxo-1-[3-(trifluoromethyl)phenyl]-1,2-dihydrobenzo[h][1,6]naphthyridine], at mTOR kinase, the “inhibitory activity” value is on record as “moderate inhibitory activity” and inhibition was half-maximal at 0.974 µM (IC50). Besides, in data set [1], the IC50 was more than 200 µM. The compound also gave a TD50 in the data set on RD cells of more than 200 µM.

For `Cc1noc(C)c1-c1ccc2ncc3ccc(=O)n(-c4cccc(C(F)(F)F)c4)c3c2c1` [HTL-7-12, 9-[4-(3,5-dimethyl)isoxazolyl]-2-oxo-1-[3-(trifluoromethyl)phenyl]-1,2-dihydrobenzo[h][1,6]naphthyridine], the melting point lay in the range of 121 to 122 °C. The compound further came in with an IC50 against mTOR kinase of 1.21 µM. In data set [1], the IC50 worked out at 36.9 ± 0.41 µM. Besides, the TD50 with RD cells was more than 200 µM.

As to `NC(=O)/C=C/c1ccc2ncc3ccc(=O)n(-c4cccc(C(F)(F)F)c4)c3c2c1` [HTL-7-24, (E)-9-(2-carbamoyl-vinyl)-2-oxo-1-[3-(trifluoromethyl)phenyl]-1,2-dihydrobenzo[h][1,6]naphthyridine], the melting point lay within 307 to 308 °C. Also, in data set [1], the “in vitro anti-EV71 activity, in words” value is recorded as “strong inhibitory activity” and the concentration for half-maximal inhibition (IC50) was determined as 0.09 ± 0.01 µM. The TD50 in the data set on RD cells was 0.15 ± 0.01 µM.

For the compound `NC(=O)NC/C=C/c1ccc2ncc3ccc(=O)n(-c4cccc(C(F)(F)F)c4)c3c2c1` [HTL-7-25, (E)-9-[3-ureido-propenyl]-2-oxo-1-[3-(trifluoromethyl)phenyl]-1,2-dihydrobenzo[h][1,6]naphthyridine], the melting point fell in the range of 150 to 151 °C. For the same compound, in data set [1], the “in vitro anti-EV71 activity, in words” value is recorded as “moderate inhibitory activity” and the IC50 is 0.41 ± 0.03 µM. This compound yielded a TD50 with RD cells of 4.42 ± 0.45 µM.

`CCOC(=O)/C=C/c1ccc2ncc3ccc(=O)n(-c4cccc(C(F)(F)F)c4)c3c2c1` [HTL-7-26, (E)-9-[2-ethoxycarbonyl-vinyl]-2-oxo-1-[3-(trifluoromethyl)phenyl]-1,2-dihydrobenzo[h][1,6]naphthyridine] gave a melting point of 210 to 212 °C. In addition, in data set [1], the “in vitro anti-EV71 activity, in words” value is recorded as “moderate inhibitory activity” and the IC50 was found to be 0.28 ± 0.2 µM. In the data set on RD cells, this compound showed a TD50 of 1.29 ± 0.57 µM.

`C=CCNc1ccc(-c2ccc3ncc4ccc(=O)n(-c5cccc(C(F)(F)F)c5)c4c3c2)cn1` [HTL-7-28, 9-[3-(6-allylamino)pyridyl]-2-oxo-1-[3-(trifluoromethyl)phenyl]-1,2-dihydrobenzo[h][1,6]naphthyridine] registered a melting point of 142 to 146 °C. The concentration for half-maximal inhibition (IC50) in data set [1] stood at 0.09 ± 0.01 µM. This compound also came in with a TD50 in the data set on RD cells of 0.23 ± 0.01 µM.

In turn, `C#CCNc1ccc(-c2ccc3ncc4ccc(=O)n(-c5cccc(C(F)(F)F)c5)c4c3c2)cn1` [HTL-7-29, 9-[3-(6-propargylamino)pyridyl]-2-oxo-1-[3-(trifluoromethyl)phenyl]-1,2-dihydrobenzo[h][1,6]naphthyridine] registered a melting point of 139 to 141 °C. For the same compound, the IC50 in data set [1] was found to be 0.09 µM. In addition, the TD50 in the data set with RD cells worked out at 0.29 ± 0.03 µM.

Take `CCOC(=O)/C=C/c1ccc2ncc3oc(=O)n(-c4cccc(C(F)(F)F)c4)c3c2c1` [WSX-1-13, (E)-8-(2-ethoxycarbonyl-vinyl)-1-[3-(trifluoromethyl)phenyl]oxazolo[5,4-c]quinolin-2(1H)-one]: the melting point lay in the range of 221 to 224 °C. In addition, in data set [1], the “in vitro anti-EV71 activity, in words” value is “weak inhibitory activity” and the 50% inhibitory concentration (IC50) turned out to be 100 ± 2.34 µM. Besides, in the data set with RD cells, the TD50 came out at 73.88 ± 3.52 µM.

Consider `CCCCC(=O)Nc1ccc(-c2ccc3ncc4oc(=O)n(-c5cccc(C(F)(F)F)c5)c4c3c2)cn1` [WSX-1-24, 8-[3-(6-valerylamino)pyridyl]-1-[3-(trifluoromethyl)phenyl]oxazolo[5,4-c]quinolin-2(1H)-one], for which the melting point lay in the range of 231 to 232 °C. Besides, the IC50 in data set [1] is more than 200 µM. The compound further returned a TD50 in the data set with RD cells of 4.27 ± 2.83 µM.
